| melting point | Structure (SMILES) |
| --- | --- |
| > 250 °C | O=C(NCC(=O)N(Cc1ccccc1)[C@@H]1c2ccccc2CC[C@H]1Cc1ccccc1)Nc1cccc(C(=O)O)c1 (relative stereo) [Example 1, trans-3-(3-{[Benzyl-(2-benzyl-1,2,3,4-tetrahydro-naphthalen-1-yl)-carbamoyl]-methyl}-ureido)-benzoic acid] |
| 155 °C (dec.) | O=C(NCC(=O)N(Cc1ccccc1)[C@@H]1c2ccccc2CC[C@H]1Cc1ccccc1)Nc1cccc(C(=O)Nc2nnn[nH]2)c1 (relative stereo) [Example 3, trans-3-(3-{[Benzyl-(2-benzyl-1,2,3,4-tetrahydro-naphthalen-1-yl)-carbamoyl]-methyl}-ureido)-N-(1H-tetrazol-5-yl)-benzamide] |
| 119 °C (dec.) | O=C(NCC(=O)N(Cc1ccccc1)[C@@H]1c2ccccc2CC[C@H]1Cc1ccccc1)c1cccc(-c2nnn[nH]2)c1 (relative stereo) [Example 4, trans-N-{[Benzyl-(2-benzyl-1,2,3,4-tetrahydro-naphthalen-1-yl)-carbamoyl]-methyl}-3-(1H-tetrazol-5-yl)-benzamide] |
| 117 °C | COc1ccccc1CN(C(=O)CNC(=O)Nc1cccc(C(=O)O)c1)[C@@H]1c2ccccc2CC[C@H]1Cc1ccccc1 (relative stereo) [Example 11, trans-3-(3-{[(2-Benzyl-1,2,3,4-tetrahydro-naphthalen-1-yl)-(2-methoxy-benzyl)-carbamoyl]-methyl}-ureido)-benzoic acid] |
| 196 to 198 °C | O=C(NCC(=O)N(Cc1cccs1)[C@@H]1c2ccccc2CC[C@H]1Cc1ccccc1)Nc1cccc(C(=O)O)c1 (relative stereo) [Example 13, trans-3-(3-{[(2-Benzyl-1,2,3,4-tetrahydro-naphthalen-1-yl)-thiophen-2-ylmethyl-carbamoyl]-methyl}-ureido)-benzoic acid] |
| 160 to 162 °C | O=C(NCC(=O)N(Cc1ccccc1)[C@@H]1CCCC[C@H]1Cc1ccccc1)Nc1cccc(C(=O)O)c1 (relative stereo) [Example 14, trans-3-(3-{[Benzyl-(2-benzyl-cyclohexyl)-carbamoyl]-methyl)-ureido)-benzoic Acid] |
| 130 °C | CCN(C(=O)CNC(=O)Nc1cccc(C(=O)O)c1)[C@@H]1c2ccccc2CC[C@H]1Cc1ccccc1 (relative stereo) [Example 16, trans-3-(3-{[(2-Benzyl-1,2,3,4-tetrahydro-naphthalen-1yl)-ethyl-carbamoyl]-methyl}-ureido)-benzoic acid] |
| 194 to 195 °C | O=C(NCC(=O)N(Cc1nccs1)[C@@H]1c2ccccc2CC[C@H]1Cc1ccccc1)Nc1cccc(C(=O)O)c1 (relative stereo) [Example 17, trans-3-(3-{[(2-Benzyl-1,2,3,4-tetrahydro-naphthalen-1-yl)-thiazol-2-ylmethyl-carbamoyl]-methyl}-ureido)-benzoic acid] |
| 130 °C | COc1ccccc1C[C@@H]1CCc2ccccc2[C@H]1N(Cc1ccccc1)C(=O)CNC(=O)Nc1cccc(C(=O)O)c1 (relative stereo) [Example 18, trans-3-[3-({Benzyl-[2-(2-methoxy-benzyl)-1,2,3,4-tetrahydro-naphthalen-1-yl]-carbamoyl}-methyl)-ureido]-benzoic acid] |
| 120 °C | O=C(O)c1cc(C(=O)NCC(=O)N(Cc2ccccc2)[C@@H]2CCCC[C@H]2Cc2ccccc2)ncn1 (relative stereo) [Example 20, trans-6-({[Benzyl-(2-benzyl-cyclohexyl)-carbamoyl]-methyl}-carbamoyl)-pyrimidine-4-carboxylic acid] |

Reference: patent US20030191279A1, “Urea derivatives useful as anticancer agents” (priority 1999, published 2003)
